Experimental data from patent publication US20100047332A1, “Treatments for burns using thyroid hormone compound in a human” (priority 2005, published 2010).

Assays:
lateral hip fat deposits = assay: TriAc cream before exercise for lateral hip fat deposits; assay type: in vivo, human
From the text: A non obese person who ran 20 miles a week had lateral hip fat deposits which were resistant to any change.

[1] = system: plasma glycerol (lipolysis of fat); assay: Plasma glycerol assay before and after mild exercise with topical TriAc cream; assay type: in vivo, human; conditions: for glycerol response relative to baseline: Triac applied; for Percentage change: glycerol after exercise vs baseline
From the text: This example uses a glycerol assay to determine the effectiveness of topically applied thyroid hormones or thyroid hormone like molecules as described in the art to increase lipolysis of fat when topically applied. More specifically, this example uses a glycerol assay to determine the effectiveness of topically applied thyroid hormones or thyroid hormone like molecules as described in the art to dissolve fat when topically applied in an amount less than a single oral dose used typically for daily therapeutic or replacement dosages.
Three adult humans (A, B, and C) with normally functioning thyroids and no history of cardiovascular disease, varying by age, sex, BMI, body surface area, and physical activity, were tested. Age varies from less than 25 (subject A) to over 40 (subjects B and C). BMI varied between 18 (A), 20 (C), and 30 (B). Physical activity was greatest in subject A, who had the lowest BMI and was also the youngest. The other two subjects typically had less than three hours of exercise per week. No food or drink other than water was given two hours prior to application of the TriAc formulation. With this short fast, the subjects are still in the fed state and plasma glycerol levels would be expected to not change during exercise, as taught in the literature for young fit subjects (Coyle et al, J Appl Physiol. 1985 August; 59(2):429-33, herein incorporated by reference). The fed state as defined herein is an individual not having an overnight fast. […] The amount of cream and thus TriAc amount was not varied according to age, sex, or weight. The cream was applied intermittently: application days were separated by at least two days.
The subjects rested for 30 minutes and then exercised in a defined manner to maintain either 65-70% of their age adjusted maximal heart rate or 110-120 strides on a Precor 544 EFX elliptical trainer for 30 minutes. Heart rate was monitored continuously with a Polar wireless monitoring device. Room temperature varied between 72 and 84 degrees. Calories expended (from Precor) per kilogram were approximately constant among each participant and between participants on a per kilogram basis during each of the exercise sessions and were usually around 3.0 to 3.5 calories per kg (see Table 4). After a 30 minute exercise session and a 5 minute programmed cool down session, another plasma glycerol assay was taken. The samples were immediately refrigerated and centrifuged after 0 to 10 hours, each exercise set treated exactly the same way, frozen at −40° C. and assayed with the Sigma-Aldrich plasma glycerol assay after deproteinization. Exercise time was fixed at a regular time of day. The next day, the experiment was repeated. The order was placebo day, then treatment day.
The magnitude of the change pre and post exercise with and without TriAc was calculated and the percentage change from baseline with and without TriAc was calculated.

[2] = system: deep dermal pressure ulcer; assay: TriAc cream on a deep dermal pressure ulcer; assay type: in vivo, human
From the text: The patient was a active triathlete who had developed a bicycle seat ulcer which was a persistent fissure running from coccyx almost to the anus. The deep dermal pressure ulcer resulted from pressure due to a bicycle seat. This pressure injury frequently was oozing and was generally moist. The fissure was 1-2 mm wide and 2-3 mm deep. It was resistant to a variety of over the counter steroid and anti-fungal creams and lanolin. […] The cream was applied for 4 treatments on an every other day basis, using barely enough to treat the area about 20 cm^2, sometimes every third day. […] Skin has remained intact for close to 6 months. The dermal ulcer in this example was non healing until the cream was used on an intermittent basis

[3] = system: thyroid hormone receptor TRα or β; conditions: cited from earlier work
[4] = system: wounds such as lacerations; assay: Lacerations treated with continuous topical T-3 or TriAc; assay type: in vivo, human; conditions: continuous topical application, in approximately three days
[5] = system: cellulite and subcutaneous fat; assay: TriAc cream before exercise for cellulite; assay type: in vivo, human; conditions: after twelve applications
Procedure: TriAc-containing creams were produced by dissolving TriAc in a suitable solvent and adding it to a cream base. […] TriAc could also be added to the oil phase of a water in oil or a oil in water cream base, or charged in a solid lipid nanoparticle, or applied as a liposome, or a matrix patch as is known in the art.
The cream was only applied before exercise. More specifically, application occurred between 30 minutes and 2 hours before mild exercise. The mild exercise involved the underlying musculature, and included long walks, jogging, or gym exercises involving light resistance exercises, or stairmasters, treadmills and the like.
The amount of cream applied was always less than 5 ml, just sufficient to cover the area, usually less than 2 ml. […] For most of the applications, the amount of cream applied was less than 3 ml and usually less than 1.5 ml. In these applications, less than 0.4 mg was applied and as little as 80 μg was applied in at least some of the applications. Exercise occurred one to three times a week. Consequently, the cream was only applied one to three times a week. Two grams of cream, approximately 2 mls, was sufficient to cover the buttocks, back of thighs, and anterior waist area.

TSH = conditions: cited from earlier work
[6] = group, exercise with the TriAc treatment

## O=C(O)Cc1cc(I)c(Oc2ccc(O)c(I)c2)c(I)c1 [TriAc, [4-(4-hydroxy-3-iodophenoxy)-3,5-diiodophenyl]acetic acid]
Lateral hip fat deposits; 9 mg TriAc per 100 ml base, 1 to 3 times a week before exercise, for 2 to 3 weeks
  change of fat deposits: Little change
Lateral hip fat deposits; after 5 weeks of application
  fat deposits: could barely be discerned
[1]; no exercise, subject A, one experiment
  glycerol response relative to baseline: 80%
[1]; no exercise, subject B
  glycerol response relative to baseline: 13%
[1]; no exercise, subject C
  glycerol response relative to baseline: −40%
[1]; with exercise, subject A
  glycerol response relative to baseline: 250%
[1]; [6]
  average increase of the concentration of glycerol: 37 µM
  average increase of the concentration of glycerol above baseline: 124%
[1]; group, versus placebo
  increase of exercise induced breakdown of fat as evidenced by plasma glycerol: over 300%
[1]; subject A, Trial 1 Treatment
  Net change in glycerol concentration after exercise: 67.6 µM
  Percentage change: 258.9%
[1]; subject A, Trial 1 Treatment, 120 micrograms TriAc cream topical, After exercise
  Glycerol Concentration: 93.7 µM
[1]; subject A, Trial 1 Treatment, 120 micrograms TriAc cream topical, Before exercise (baseline)
  Glycerol Concentration: 26.2 µM
[1]; subject A, Trial 2 Treatment
  Net change in glycerol concentration after exercise: 66.2 µM
  Percentage change: 208.7%
[1]; subject A, Trial 2 Treatment, After exercise
  Glycerol Concentration: 97.9 µM
[1]; subject A, Trial 2 Treatment, Before exercise (baseline)
  Glycerol Concentration: 31.7 µM
[1]; subject A, Trial 3 Treatment
  Net change in glycerol concentration after exercise: 23.4 µM
  Percentage change: 121.4%
[1]; subject A, Trial 3 Treatment, After exercise
  Glycerol Concentration: 42.7 µM
[1]; subject A, Trial 3 Treatment, Before exercise (baseline)
  Glycerol Concentration: 19.3 µM
[1]; subject B, Trial 1 Treatment
  Net change in glycerol concentration after exercise: 29.0 µM
  Percentage change: 80.8%
[1]; subject B, Trial 1 Treatment, After exercise
  Glycerol Concentration: 64.8 µM
[1]; subject B, Trial 1 Treatment, Before exercise (baseline)
  Glycerol Concentration: 35.8 µM
[1]; subject B, Trial 2 Treatment
  Net change in glycerol concentration after exercise: 30.3 µM
  Percentage change: 100.0%
[1]; subject B, Trial 2 Treatment, After exercise
  Glycerol Concentration: 60.7 µM
[1]; subject B, Trial 2 Treatment, Before exercise (baseline)
  Glycerol Concentration: 30.3 µM
[1]; subject B, Trial 3 Treatment
  Net change in glycerol concentration after exercise: 17.9 µM
  Percentage change: 80.3%
[1]; subject B, Trial 3 Treatment, After exercise
  Glycerol Concentration: 40.0 µM
[1]; subject B, Trial 3 Treatment, Before exercise (baseline)
  Glycerol Concentration: 22.1 µM
[1]; subject C, Trial 1 Treatment
  Net change in glycerol concentration after exercise: 37.2 µM
  Percentage change: 87.1%
[1]; subject C, Trial 1 Treatment, After exercise
  Glycerol Concentration: 80.0 µM
[1]; subject C, Trial 1 Treatment, Before exercise (baseline)
  Glycerol Concentration: 42.7 µM
[1]; subject C, Trial 2 Treatment
  Net change in glycerol concentration after exercise: 38.2 µM
  Percentage change: 73.3%
[1]; subject C, Trial 2 Treatment, After exercise
  Glycerol Concentration: 90.3 µM
[1]; subject C, Trial 2 Treatment, Before exercise (baseline)
  Glycerol Concentration: 52.1 µM
[1]; subject C, Trial 3 Treatment
  Net change in glycerol concentration after exercise: 30.3 µM
  Percentage change: 110.0%
[1]; subject C, Trial 3 Treatment, After exercise
  Glycerol Concentration: 57.9 µM
[1]; subject C, Trial 3 Treatment, Before exercise (baseline)
  Glycerol Concentration: 27.6 µM
[1]; using percentage change in the concentration of glycerol, versus placebo
  increase of effectiveness of exercise to burn fat: about 400%
[2]; 0.006% cream, 4 treatments every other day, over the next few weeks
  healing of the ulcer: substantial healing
[2]; after treatment with 0.006% cream
  time skin has remained intact: ~6 months
[3]
  potency as thyroid hormone agonist: potency about that of T-3
  selectivity in binding: slightly Beta selective
[4]
  signs of inflammation: increased signs of inflammation
[5]; 8 to 16 mg TriAc per 100 ml, before exercise
  cellulite: little evidence of cellulite remained
[5]
  contour of the buttocks: smaller and smoother
TSH; 350 ug oral, over a few hour time period
  transient change of TSH levels: 30%
TSH; oral, human
  minimum oral dosage which transiently changes TSH levels: 350 µg
